What was measured:
Assay type in all cases: cell-based
[1] = target: T1, human GLP-1R (Homo sapiens (Human), UniProt P43220); assay: GLP-1 assay with GLP1 endogenous agonist (calcium mobilization, EC20 GLP-1 peptide 7-36 amide); conditions: calcium flux; for Emax at 30 µM: 30 μM compound, EC20 of GLP-1 7-36 amide; for EC50: potentiation of EC20 GLP-1 7-36 amide
Source text: A. GLP-1 Assay with GLP1 Endogenous Agonist
(§1) To assess the effects of test compounds on GLP-1 or glucagon potency and efficacy, a high-throughput calcium mobilization assay was used essentially as previously described (Morris L C, Days E L, Turney M, Mi D, Lindsley C W, Weaver C D, Niswender K D, A Duplexed High-Throughput Screen to Identify Allosteric Modulators of the Glucagon-Like Peptide 1 and Glucagon Receptors. J. Biomol. Screen. 2014 Feb. 13, 19(6):847-858). Briefly, human GLP-1R or Glucagon Receptor 9-3-H cells over-expressing a promiscuous G-protein (Millipore, Billerica, Mass.) were plated at 15,000 cells/well in black-walled 384-well plates (Greiner Bio-one, Monroe, N.C.) in Dulbecco's Modified Eagles Medium (DMEM) with 10% FCS, 4.0 mM L-glutamine, non-essential amino acids (NEAAs), and 10.0 mM HEPES without antibiotics. After overnight attachment, cells were washed twice with assay buffer (HBSS supplemented with 20 mM HEPES and 1.0 mM probenecid) using an ELx405CW cell washer (Bio-Tek, Winooski, Vt.) and then loaded with the calcium sensitive dye fluo-4 AM (Invitrogen, Grand Island, N.Y.) at a final concentration of 2.0 μM in assay buffer. After a 45-minute incubation at room temperature, the dye was removed by washing, leaving 20 μL of assay buffer. Next, the cell plate was introduced alongside a 384-well compound plate containing 0.1% final DMSO control wells and 11-point concentration response curves of putative GLP-1 PAMs created using a non-pipet based liquid transfer instrument, ECH0555 (Labcyte, Sunnyvale, Calif.). After a 20 μL compound addition to the appropriate wells, kinetic fluorescent measurements were collected for 2 minutes using an FDSS6000 (Hamamatsu, Bridgewater, N.J.) with 488 nm excitation and 480/540 emission filters. After 2 minutes, 10 μL of an EC20 concentration of GLP-1 peptide 7-36 amide (Phoenix Pharmaceuticals, Burlingame, Calif.), Glucagon (Phoenix Pharmaceuticals, Burlingame, Calif.) Exendin-4 (Tocris Bioscience, Bristol, UK), or Liraglutide (Victoza™, Novo-Nordisk, Denmark) was added and fluorescence was monitored for an additional 2 minutes to observe potentiation of the calcium flux signal. […] Recombinant peptides were reconstituted into assay buffer supplemented with 0.1% fatty acid free BSA (Sigma #A6003) and diluted into borosilicate glass tubes to maximize peptide recovery (Goebel-Stengel M, Stengel A, Tache Y, Reeve J R Jr., The importance of using the optimal plasticware and glassware in studies involving peptides. Anal. Biochem. 2011 Jul. 1, 414(1):38-46).
(§2) Data is from a single experiment unless otherwise noted. Data that is an average of two experiments is noted as “n=2” while data that is an average of three or more experiments is presented as the average plus or minus the standard error of the mean.

[2] = target: T1, human GLP-1R; assay: GLP-1 assay with EX-4 synthetic agonist (calcium mobilization, EC20 EX-4); conditions: calcium flux; for Emax at 30 µM: 30 μM compound, EC20 of EX-4; for EC50: potentiation of EC20 EX-4, read-out: GLP1 EC50 (Ex-4 synthetic agonist)
Source text: B. GLP-1 Assay with EX-4 Synthetic Agonist
as §1, with “L-glutamine, 1×” for “L-glutamine,”, “EL×405CW” for “ELx405CW”, “EX-4” for “GLP-1 peptide 7-36 amide”, “Taché” for “Tache”
as §2

[3] = target: T1, human GLP-1R; assay: GLP-1 concentration response curves in the presence of fixed concentrations of PAM (GLP-1 induced calcium flux); conditions: 0 μM, 3 μM, 10 μM, 30 μM of compound; FIGS. 2A and 2B
Source text: FIGS. 2A and 2B show a series of GLP-1 concentration response curves in the presence of fixed concentrations of an exemplary positive allosteric modulator (Compound 1).

T1 sequence (P43220 24-463): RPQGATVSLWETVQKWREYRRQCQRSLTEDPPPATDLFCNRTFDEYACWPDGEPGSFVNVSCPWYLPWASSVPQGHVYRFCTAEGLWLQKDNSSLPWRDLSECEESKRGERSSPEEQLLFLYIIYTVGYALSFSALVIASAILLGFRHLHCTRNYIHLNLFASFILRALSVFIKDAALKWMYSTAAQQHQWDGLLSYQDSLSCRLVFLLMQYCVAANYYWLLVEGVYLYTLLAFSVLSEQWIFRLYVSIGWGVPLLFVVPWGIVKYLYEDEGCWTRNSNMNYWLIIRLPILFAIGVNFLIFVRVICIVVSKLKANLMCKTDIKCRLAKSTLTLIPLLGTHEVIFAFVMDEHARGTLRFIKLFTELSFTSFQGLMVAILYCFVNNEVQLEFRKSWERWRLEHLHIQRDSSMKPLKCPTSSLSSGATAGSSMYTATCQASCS

## Cc1c2ccccc2n2c(C(=O)NC[C@@H]3CCCN3C(C)C)cn(C3CCCC3)c(=O)c12 [Compound 1, (S)-2-Cyclopentyl-N-((1-isopropylpyrrolidin-2-yl)methyl)-10-methyl-1-oxo-1,2-dihydropyrazino[1,2-a]indole-4-carboxamide]
[1]
  Emax at 30 µM: 57%
  EC50: 2700 nM
[2]
  Emax at 30 µM: 59%
  EC50: 4600 nM
[3]
  shift of GLP-1 concentration response curves / GLP-1 EC50: leftward shift in the GLP-1 concentration response curves

## CC(C)N1CCC[C@H]1CNC(=O)c1cn(C2CCCC2)c(=O)c2c(Cl)c3ccccc3n12 [Compound 10, (S)-10-chloro-2-cyclopentyl-N-((1-isopropylpyrrolidin-2-yl)methyl)-1-oxo-1,2-dihydropyrazino[1,2-a]indole-4-carboxamide]
[1]
  Emax at 30 µM: 61%
  EC50: 1300 nM
[2]
  Emax at 30 µM: 57%
  EC50: 1500 nM

From patent publication US10487087B2, “Positive allosteric modulators of the GLP-1 receptor” (Vanderbilt University, priority 2015, dated 2019)
